# Measurements from paper PMC11756396 (Nature Communications, 2025).
# What was measured:
# T cells = details: high, supraphysiological concentrations; cited from earlier work
# HLA-A3 [1] = biological target: T1, HLA-A3 (Homo sapiens, UniProt P04439); experiment: Peptide dissociation from HLA-A3 by fluorescence anisotropy; assay type: binding
# T1 construct: the extracellular domain of the MHC heavy chain, β2-microglobulin, TCR α and β chains; made in house
# [2] = test system: TCR4-expressing T cells co-cultured with HLA-A3+ antigen presenting cells (Cos-7); experiment: CD107a degranulation of TCR4-transduced T cells, peptide-pulsed HLA-A3+ APC (flow cytometry); details: for CD107a, absolute frequency: TCR4, 6 h co-culture, E:T 1:1, mean of three replicates
# Protocol: TCR-T cells were utilized for downstream functional analysis at days 5–8 post transduction.
# Cos-7 cells were electroporated with 100 μg/mL of HLA-A*03:01 mRNA and plated into 96-well round-bottom plates overnight. […] Cells were washed with 1× PBS to remove any unbound peptide. […] Cells were washed again with PBS and then fixed and permeabilized for 15 min at 4 °C. […] All antibodies were used at a final concentration of 5 μg/mL. Finally, cells were washed with perm-wash buffer, suspended in 2% FBS in PBS, and data acquired on an X20 LSR Fortessa flow cytometer with the BD FACSDiva software.
# HLA-A3 [3] = biological target: T1, HLA-A3; set-up: method as in 2 sources, one per row (each row's own in cited_ref): ref 15 (a number printed in a supplementary file, which may have a reference list of its own: not looked up in the article's list) ||| ref 10, ref 15; details: cited from earlier work
# HLA-A3 [4] = biological target: T1, HLA-A3; details: PIK3CA–HLA-A3 complex; quoted in peer review; cited from earlier work
# [5] = test system: TCR3-expressing T cells co-cultured with HLA-A3+ antigen presenting cells (Cos-7); experiment: TNFα production by TCR3-transduced T cells (intracellular cytokine staining); details: Conc. 100 (unit not given), mean of three replicates
# HLA-A3 [6] = biological target: T1, HLA-A3; experiment: 19F NMR of 5F-Trp-substituted peptide/HLA-A3; details: 5F-Trp6, 0.3 mM complex, pH 7.4, 5 °C
# Protocol: ^19F NMR spectra were recorded using a Bruker 600 MHz NMR instrument with a QCI cryogenic probe at NMRFAM, University of Wisconsin-Madison. All proteins were solubilized in 10 mM HEPES, 150 mM NaCl, pH 7.4 with 10% D2O (Cambridge Isotope Laboratories DLM-4-25).
# NMR probe temperature was maintained at a calibrated value of 5.2 °C. […] To improve the signal/noise ratio, we compared ^19F 1D spectra recorded with and without proton decoupling. Decoupling caused a noticeable reduction of the signal intensity of the ^19F nuclear spin in the context of the complexes; therefore, all spectra were collected un-decoupled to maximize sensitivity. The reference frequency of the ^19F channel was set through internal routines of the Topspin acquisition software after the spectrometer was locked on D2O. The recycle delay was optimized to find the best compromise between the longitudinal relaxation and the repetition rate for signal averaging. The optimal values of D1 = 0.4 s and AQ = 0.59 s were used in all experiments. One-dimensional fluorine experiments were recorded with the pulse program zgflqn.F from the standard Bruker library with TD1 = 134,078 points and a spectral width (SW) of 200 ppm. […] The 4 h data blocks were checked individually for a possible frequency drift (which was not detected) and added to obtain combined datasets with improved signal/noise ratio. […]
# [7] = test system: TCR4-expressing T cells co-cultured with HLA-A3+ antigen presenting cells (Cos-7); experiment: TNFα production by TCR4-transduced T cells (intracellular cytokine staining); details: Conc. 100 (unit not given), mean of three replicates
# T1 sequence (P04439 25-308 limits assumed): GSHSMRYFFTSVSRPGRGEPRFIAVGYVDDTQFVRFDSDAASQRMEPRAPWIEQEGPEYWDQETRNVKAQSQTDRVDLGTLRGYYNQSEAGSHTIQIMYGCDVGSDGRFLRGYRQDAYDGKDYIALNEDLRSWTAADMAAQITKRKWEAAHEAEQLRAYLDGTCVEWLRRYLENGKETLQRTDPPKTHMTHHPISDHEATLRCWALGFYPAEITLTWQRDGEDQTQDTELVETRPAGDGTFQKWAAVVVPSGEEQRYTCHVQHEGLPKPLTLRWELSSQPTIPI
# T1 sequence (P61769 21-119 partner): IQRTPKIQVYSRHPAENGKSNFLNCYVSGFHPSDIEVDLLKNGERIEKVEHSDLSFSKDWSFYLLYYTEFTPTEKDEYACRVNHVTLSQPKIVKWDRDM
sequence,measurement,setting,value
AHHGGWTTK [WT peptide],T cell responses,T cells,no responses were seen
same,peptide/HLA-A3 dissociation in words,"HLA-A3 [1]; 4 °C, 100 nM fluorescein-labeled peptide/HLA-A3, 100 μM unlabeled peptide, pH 7.4",only a small amount of dissociation observed over an extended period
same,peptide/HLA-A3 stability in words,"HLA-A3 [1]; 37 °C and 25 °C, 100 nM fluorescein-labeled peptide/HLA-A3, pH 7.4",less stable at 37 °C and 25 °C
same,"CD107a, absolute frequency",[2]; peptide 0.001 ug/mL,1.367
same,"CD107a, absolute frequency",[2]; peptide 0.01 ug/mL,3.473
same,"CD107a, absolute frequency",[2]; peptide 0.1 ug/mL,1.267
same,"CD107a, absolute frequency",[2]; peptide 1 ug/mL,1.09
same,"CD107a, absolute frequency",[2]; peptide 10 ug/mL,1.843
same,"CD107a, absolute frequency",[2]; peptide 1.00E-05 ug/mL,1.503
same,stimulation (CD107a),"[2]; TCR4 T cells, peptide concentrations as high as 10 μM",no stimulation was evident
same,half-life of peptide/HLA-A3 complex,"HLA-A3 [3]; 37 °C (b252/b262 context), quoted in peer review",4.8 min
same,"half-life, peptide dissociation","HLA-A3 [3]; HLA-A3, 37 °C, fluorescence anisotropy",4.82 min
same,melting temperature (thermal stability),HLA-A3 [4],37 oC
same,"TNFα, absolute frequency",[5],4.823
same,share of remaining 19F population,HLA-A3 [6]; broad peak at –[…],roughly 50%
same,share of total 19F signal,HLA-A3 [6]; sharp peak at –125.12 ppm (degradation),about 19%
same,"TNFα, absolute frequency",[7],2.4
